Test results: ChEMBL document CHEMBL1201862, “PubChem BioAssay data set” (2004)
Calls of active or inactive are those of the source.

Assays:
[1] = viability of PTEN-deleted HCT116 cells – cell-based, HCT116 PTEN knockout, dose response (AID 1047); assay type: functional;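 also: HCT116 colon tumor cells with PTEN knocked out; cells exposed to compound for 60 hours before readout; potency for loss of cell viability measured by luminescence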
[2] = viability of HCT116 lacking mutant beta-catenin – cell-based, human colon tumor, dose response (AID 1045); assay type: functional;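 also: HCT116 colon tumor cells with beta catenin knocked out; cells exposed to compound for 60 hours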
Large T antigen = Large T antigen (Simian virus 40, UniProt P03070); assay type: functional, Betapolyomavirus macacae;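 also: Confirmatory-stage PubChem screen for compounds that inhibit SV40 T antigen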
[3] = target: T1, Microphthalmia-associated transcription factor (Homo sapiens, UniProt O75030); assay: reducers of TRPM1 reporter luminescence, concentration series – cell-based, SK-MEL-5, cherry-picked, set 3, MITF inhibitor project, dose response (AID 493073); assay type: functional;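 also: SK-MEL-5 melanoma cells with luciferase driven by the MITF target TRPM1 promoter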
T1 sequence (O75030 whole entry): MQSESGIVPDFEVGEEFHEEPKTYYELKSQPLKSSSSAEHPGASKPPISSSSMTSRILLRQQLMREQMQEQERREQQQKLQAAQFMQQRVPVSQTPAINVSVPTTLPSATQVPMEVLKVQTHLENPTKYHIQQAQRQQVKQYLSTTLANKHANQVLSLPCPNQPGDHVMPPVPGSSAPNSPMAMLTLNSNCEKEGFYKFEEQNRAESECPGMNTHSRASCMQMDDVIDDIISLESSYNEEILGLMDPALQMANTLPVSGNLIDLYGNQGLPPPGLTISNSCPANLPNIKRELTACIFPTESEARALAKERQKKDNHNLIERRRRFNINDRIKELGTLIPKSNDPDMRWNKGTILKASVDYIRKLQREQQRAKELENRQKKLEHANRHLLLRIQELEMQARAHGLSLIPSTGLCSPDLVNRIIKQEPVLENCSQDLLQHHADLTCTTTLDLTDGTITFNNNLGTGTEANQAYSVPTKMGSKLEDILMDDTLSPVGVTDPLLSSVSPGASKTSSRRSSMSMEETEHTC

[4] = target: T2, Mannose-6-phosphate isomerase (Homo sapiens, UniProt P34949); assay: MPI inhibition at elevated mannose 6-phosphate – biochemical, fluorescence intensity, high mannose 6-phosphate, primary screen (AID 1220)
T2 sequence (P34949 whole entry): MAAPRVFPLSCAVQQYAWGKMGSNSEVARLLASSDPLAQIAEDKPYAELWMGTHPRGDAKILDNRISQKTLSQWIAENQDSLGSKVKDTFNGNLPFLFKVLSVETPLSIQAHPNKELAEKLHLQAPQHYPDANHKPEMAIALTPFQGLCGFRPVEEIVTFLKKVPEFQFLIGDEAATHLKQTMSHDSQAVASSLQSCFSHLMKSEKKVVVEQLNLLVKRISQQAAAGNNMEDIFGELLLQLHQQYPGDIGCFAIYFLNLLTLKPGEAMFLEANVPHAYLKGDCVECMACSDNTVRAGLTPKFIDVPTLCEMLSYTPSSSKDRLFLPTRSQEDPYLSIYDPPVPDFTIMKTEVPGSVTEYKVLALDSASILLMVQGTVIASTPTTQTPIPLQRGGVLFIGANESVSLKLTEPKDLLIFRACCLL

[5] = fluconazole-exposed Candida albicans growth modulators – fluorescence, retest, confirmation (AID 2467); assay type: functional, cell-based
[6] = NIH-3T3 fibroblast cytotoxicity, dose response, cytotoxicity control, cell-based, fluorescence, Alamar Blue, secondary assay (AID 2327); assay type: functional;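 also: NIH-3T3 mouse fibroblasts cultured with fluconazole at 8 µg/mL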
cells [7] = assay: cells
[8] = target: Heat shock protein HSP 90-alpha (Homo sapiens, UniProt P07900); assay type: functional, organism-based
[9] = viability of uninfected HEp-2 cells – cell-based, HTS, cytotoxicity control for RSV inhibitor project, dose response (AID 2410); assay type: functional; conditions: human respiratory syncytial virus
[10] = target: Induced myeloid leukemia cell differentiation protein Mcl-1 (Homo sapiens, UniProt Q07820); assay type: functional
[11] = Vero E6 cell cytotoxicity, dose response, cytotoxicity control for non-replicating M. tuberculosis project, secondary assay (AID 492998); assay type: functional, VeroE6; conditions: Vero C1008
INS1 = assay: INS-1E survival protection against cytokine death – cell-based, luminescence, retest, dose response (AID 449756); assay type: functional; conditions: Rattus norvegicus;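 also: cell death triggered by IL-1 beta plus TNF-alpha plus IFN-gamma mixture; protective hits raise ATP signal compared with cytokine alone wells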
[12] = THP-1 cell cytotoxicity, dose response, cytotoxicity control for non-replicating M. tuberculosis project (AID 489025); assay type: functional
cells [13] = assay type: functional
[14] = HEK-293T viability loss after treatment – luminescence, T-cell screen hits, cytotoxicity control for TCR NF-kB inhibitor project, dose response (AID 489026); assay type: functional, cell-based;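 also: cells exposed to compound about 14 hours before the viability readout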
[15] = target: T3, Polyadenylate-binding protein 1 (Homo sapiens, UniProt P11940); assay: MLLE domain peptide-binding blockers, IC50 – biochemical, fluorescence polarization, FITC-PAM2 peptide, dose response (AID 602259); assay type: functional; conditions: read-out: IC50_Mean
Genome polyprotein = Genome polyprotein (dengue virus type 2, UniProt P29990); assay: flavivirus cap methylation enzyme inhibition – biochemical, confirmation dose response, primary screen (AID 588689); assay type: functional
[16] = target: T4, High affinity choline transporter 1 (Homo sapiens, UniProt Q9GZV3); assay: human choline transporter blockers, potency – cell-based, 5-point CRC, membrane potential dye, dose response (AID 504840); assay type: functional
T4 sequence (Q9GZV3 whole entry): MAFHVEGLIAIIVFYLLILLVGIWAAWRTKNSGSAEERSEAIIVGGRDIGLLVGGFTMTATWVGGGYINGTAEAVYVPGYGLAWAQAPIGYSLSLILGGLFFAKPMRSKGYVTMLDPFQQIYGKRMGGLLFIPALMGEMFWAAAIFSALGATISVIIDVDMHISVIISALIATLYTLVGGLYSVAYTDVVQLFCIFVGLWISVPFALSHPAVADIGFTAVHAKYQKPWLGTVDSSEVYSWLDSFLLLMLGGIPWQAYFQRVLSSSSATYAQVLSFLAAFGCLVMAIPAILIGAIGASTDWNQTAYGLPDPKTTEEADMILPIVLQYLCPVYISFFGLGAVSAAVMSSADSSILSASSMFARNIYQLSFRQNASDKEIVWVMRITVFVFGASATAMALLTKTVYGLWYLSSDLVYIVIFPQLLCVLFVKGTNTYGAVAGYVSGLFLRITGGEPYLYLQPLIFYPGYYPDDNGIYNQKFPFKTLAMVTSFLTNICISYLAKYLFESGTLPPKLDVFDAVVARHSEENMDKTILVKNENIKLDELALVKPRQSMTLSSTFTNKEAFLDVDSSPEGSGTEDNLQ

[17] = target: T3, Polyadenylate-binding protein 1; assay: MLLE binding blockers, Cy5 peptide tracer – biochemical, fluorescence polarization, Cy5-PAM2 peptide, secondary, miRNA deadenylation inhibitor project, dose response (AID 602260); assay type: functional; conditions: read-out: IC50_Mean
[18] = NIH3T3 cell viability loss – ATP luminescence, mouse fibroblasts, counter-screen, dose response (AID 2010); assay type: functional, cell-based;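 also: cells exposed to compound for about 90 hours before reading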
[19] = Trypanosoma cruzi growth suppression in host cells – NIH3T3 host cells, beta-gal luminescence, confirmation (AID 2044); assay type: functional, cell-based;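 also: intracellular parasites grown in NIH/3T3 mouse fibroblasts as host cells; luminescent beta-galactosidase reporter signal from transgenic T. cruzi replicating inside host cells; inhibitors lower the luminescence signal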

T3 sequence (P11940 whole entry, the tested form may be a part): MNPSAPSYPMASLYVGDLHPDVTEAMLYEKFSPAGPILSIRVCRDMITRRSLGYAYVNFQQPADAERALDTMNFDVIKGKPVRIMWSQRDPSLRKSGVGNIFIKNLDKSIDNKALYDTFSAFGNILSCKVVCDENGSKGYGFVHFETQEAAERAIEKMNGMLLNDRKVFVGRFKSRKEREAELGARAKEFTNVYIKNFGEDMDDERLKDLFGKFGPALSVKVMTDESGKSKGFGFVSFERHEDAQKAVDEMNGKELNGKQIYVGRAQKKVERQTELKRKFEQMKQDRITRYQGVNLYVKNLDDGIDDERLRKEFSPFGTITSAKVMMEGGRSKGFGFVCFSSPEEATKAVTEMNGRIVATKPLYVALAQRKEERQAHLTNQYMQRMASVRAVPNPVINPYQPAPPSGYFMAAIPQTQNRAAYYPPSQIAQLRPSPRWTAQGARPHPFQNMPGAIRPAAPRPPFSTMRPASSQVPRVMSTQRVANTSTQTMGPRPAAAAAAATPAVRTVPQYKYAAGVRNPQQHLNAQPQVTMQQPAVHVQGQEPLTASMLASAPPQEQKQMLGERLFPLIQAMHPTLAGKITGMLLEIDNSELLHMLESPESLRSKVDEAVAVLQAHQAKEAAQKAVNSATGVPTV
Induced myeloid leukemia cell differentiation protein Mcl-1, sequence (Q07820 whole entry): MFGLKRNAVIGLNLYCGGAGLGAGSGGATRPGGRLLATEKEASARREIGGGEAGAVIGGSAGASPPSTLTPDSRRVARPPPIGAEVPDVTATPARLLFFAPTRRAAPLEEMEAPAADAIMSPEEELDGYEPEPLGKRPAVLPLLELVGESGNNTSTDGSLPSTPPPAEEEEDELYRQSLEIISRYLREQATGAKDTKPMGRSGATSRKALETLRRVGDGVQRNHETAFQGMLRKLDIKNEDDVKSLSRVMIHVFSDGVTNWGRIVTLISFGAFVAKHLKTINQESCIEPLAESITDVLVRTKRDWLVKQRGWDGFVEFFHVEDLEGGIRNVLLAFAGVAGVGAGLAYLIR
Large T antigen, sequence (P03070 whole entry): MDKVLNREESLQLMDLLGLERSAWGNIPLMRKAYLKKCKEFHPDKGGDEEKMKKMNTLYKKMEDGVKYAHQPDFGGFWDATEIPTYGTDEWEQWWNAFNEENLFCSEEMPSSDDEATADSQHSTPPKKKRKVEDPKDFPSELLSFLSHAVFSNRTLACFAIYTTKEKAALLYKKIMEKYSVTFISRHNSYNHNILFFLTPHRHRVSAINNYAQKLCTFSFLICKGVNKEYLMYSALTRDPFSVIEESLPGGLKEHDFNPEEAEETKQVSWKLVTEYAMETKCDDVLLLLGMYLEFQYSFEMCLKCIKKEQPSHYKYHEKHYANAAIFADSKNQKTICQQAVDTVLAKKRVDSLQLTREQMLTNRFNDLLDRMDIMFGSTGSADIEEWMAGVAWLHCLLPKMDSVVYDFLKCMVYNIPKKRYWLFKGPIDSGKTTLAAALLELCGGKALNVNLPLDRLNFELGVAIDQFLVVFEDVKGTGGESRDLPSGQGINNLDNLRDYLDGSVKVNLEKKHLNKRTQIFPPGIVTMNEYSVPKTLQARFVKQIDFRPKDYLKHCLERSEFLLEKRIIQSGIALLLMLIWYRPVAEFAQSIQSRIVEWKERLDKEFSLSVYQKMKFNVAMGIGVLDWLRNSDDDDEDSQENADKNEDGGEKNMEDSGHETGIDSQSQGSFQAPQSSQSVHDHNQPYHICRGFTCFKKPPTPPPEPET
Genome polyprotein, sequence (P29990 2492-3391 limits assumed): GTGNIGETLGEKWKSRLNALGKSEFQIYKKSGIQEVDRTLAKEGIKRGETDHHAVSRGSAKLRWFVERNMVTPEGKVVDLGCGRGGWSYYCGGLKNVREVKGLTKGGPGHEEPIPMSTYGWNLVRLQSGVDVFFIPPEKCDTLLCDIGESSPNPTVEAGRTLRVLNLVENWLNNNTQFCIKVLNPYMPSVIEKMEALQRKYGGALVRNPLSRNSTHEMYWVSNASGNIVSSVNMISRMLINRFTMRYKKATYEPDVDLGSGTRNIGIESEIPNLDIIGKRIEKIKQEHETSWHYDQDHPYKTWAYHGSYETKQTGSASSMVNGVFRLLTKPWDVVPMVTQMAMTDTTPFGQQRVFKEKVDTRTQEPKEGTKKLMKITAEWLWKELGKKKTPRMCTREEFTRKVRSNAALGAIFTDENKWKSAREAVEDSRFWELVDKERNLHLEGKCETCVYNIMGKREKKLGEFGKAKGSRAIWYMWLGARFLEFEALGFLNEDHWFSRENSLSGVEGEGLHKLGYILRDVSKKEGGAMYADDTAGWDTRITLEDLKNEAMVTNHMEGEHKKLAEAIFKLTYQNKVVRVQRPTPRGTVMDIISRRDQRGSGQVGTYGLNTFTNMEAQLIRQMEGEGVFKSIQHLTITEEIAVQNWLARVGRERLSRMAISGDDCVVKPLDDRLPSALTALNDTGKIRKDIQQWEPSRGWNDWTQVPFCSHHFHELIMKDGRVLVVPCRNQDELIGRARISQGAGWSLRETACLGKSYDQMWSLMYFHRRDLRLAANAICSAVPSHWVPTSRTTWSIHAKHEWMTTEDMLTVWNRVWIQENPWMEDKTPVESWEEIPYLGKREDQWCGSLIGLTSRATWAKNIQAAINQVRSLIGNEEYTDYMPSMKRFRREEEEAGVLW

SMILES: C=CCN1C(=O)/C(=C/c2cc(C)n(-c3cccnc3)c2C)C(=O)NC1=S
- EC50 [1]: 89.5 µM (active)
- EC50 [2]: 53.3 µM (active)
- IC50 (Large T antigen): 66.7 µM (active)
- AC50 [3]: 16.8 µM (active)
- IC50 [4]: > 50 µM (not active)

SMILES: NC(=O)COc1ccc2c3c(c(=O)oc2c1)CCCCC3
- EC50 [5]: > 38 µM (not active)
- EC50 [6]: > 160 µM (inconclusive)
- IC50 (cells [7]): 42.2 µM (active)

SMILES: CCCOc1ccc(N2C(=O)CC(N3CCC(C(=O)OCC)CC3)C2=O)cc1 (stereo not drawn)
- AC50 [8]: 3.1 µM (active)

SMILES: Cc1ccc(NC(=S)Nc2cccc3cnccc23)cc1
- IC50 [4]: > 50 µM (not active)

SMILES: CCOC(=O)CN1C(=O)N[C@@H](c2cccc(F)c2)C(C(C)=O)=C1C
- IC50 (cells [7]): 12.8 µM (active)
- CC50 [9]: 44.1 µM (active)

SMILES: COc1cc(/C=C/c2nc3ccccc3c(=O)n2-c2cccc(O)c2)ccc1O
- IC50 [10]: 8.49 µM (active)

SMILES: COc1ccc(N(C)C(=S)Nc2ccc3nc(C)c(C)nc3c2)cc1
- IC50 [4]: > 50 µM (not active)

SMILES: Cc1cccc(-c2csc(N)c2C(=O)OC(C)C)c1
- IC50 [4]: > 50 µM (not active)

SMILES: CC(/C=N\Nc1n[nH]c2c3cccc(C)c3nc-2n1)=C\c1ccco1
- IC50 [10]: 3.46 µM (active)

SMILES: O=C(N/N=C\c1ccc([N+](=O)[O-])s1)c1cncc(Br)c1
- EC50 [5]: 4.15 µM (active)
- EC50 [6]: 29.4 µM (active)
- EC50 [1]: 1.09 µM (active)
- CC50 [11]: 4.83 µM (active)
- AC50 (INS1): 7.04 µM (active)
- CC50 [12]: 5.8 µM (active)
- EC50 [2]: 0.452 µM (active)
- IC50 (cells [13]): 12.6 µM (active)
- AC50 [3]: 4.34 µM (active)

SMILES: CCN(CC)C1=N/C(=C\c2ccc(OC)cc2)C(=O)N1c1ccccc1
- IC50 (cells [7]): 4.49 µM (active)
- CC50 [9]: 9.86 µM (active)

SMILES: COc1ccc(C(=O)N(C)Cc2cnn(Cc3ccccc3)c2)cc1S(=O)(=O)N1CCOCC1
- IC50 [14]: > 80 µM (inactive)

SMILES: Cc1ccc(C(=O)/C=C/C(=O)O)cc1
- IC50 [15]: > 66 µM (inactive)
- IC50 (Genome polyprotein): > 100 µM (active)
- IC50 [16]: 10.5 µM (active)
- IC50 [17]: > 66 µM (inactive)

SMILES: Cn1c2ccccc2c(=O)c2c(=O)n(Cc3ccco3)c(-c3ccc(Cl)cc3Cl)nc21
- EC50 [18]: > 30 µM (not active)
- IC50 (cells [7]): 10.2 µM (active)
- CC50 [9]: 15.5 µM (active)
- EC50 [19]: 0.978 µM (active)

SMILES: Cc1ccc2c(c1)COc1c3ccc(C(=O)N[C@@H](C)CO)cc3nn1-2
- IC50 (cells [7]): 41.5 µM (active)
- CC50 [9]: > 50 µM (active)
